From patent US20230357447A1, “TUMOR ACTIVATED MULTISPECIFIC ANTIBODIES FOR TARGETING CD28 AND PD-L1 AND METHODS OF USE THEREOF” (Janux Therapeutics, Inc., priority 2022, published 2023)

Test system: anti-CD28 scFv
Experiment: Phage binding ELISA (panning) of clonal phage on anti-CD28 scFv, with or without CD28 soluble protein
Details: for Phage binding ELISA Backgroud signal / Backgroud signal: clonal phage supernatant; for Backgroud signal / CD28 scFv signal in presence of CD28 / CD28 scFv signal: Phage binding ELISA; for Backgroud signal: background wells; for Phage binding ELISA CD28 scFv signal in presence of CD28: clonal phage supernatant on captured anti-CD28 scFv pre-incubated with CD28 soluble protein; for Phage binding ELISA CD28 scFv signal: clonal phage supernatant on captured biotinylated anti-CD28 scFv; for Phage binding ELISA CD28 scFv signal / CD28 scFv signal: blocking buffer alone; for CD28 scFv signal in presence of CD28: captured anti-CD28 scFv pre-incubated with CD28 soluble protein; for CD28 scFv signal: captured biotinylated anti-CD28 scFv
Summary of the method: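 Wells pre-incubated with blocking buffer plus CD28 soluble protein or blocking buffer alone, then crude clonal phage supernatants added without washing for a short incubation. After washing, bound phage detected with HRP-conjugated anti-M13 antibody.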

[1] = background (no anti-CD28 scFv signal)

Phage-189 (VDWCPRYLWHVCYN)
Phage binding ELISA Backgroud signal (background signal): 0.064

Phage-382 (ITWCPTSLWNRCLV)
Phage binding ELISA Backgroud signal [1]: 0.077

Phage-136 (MHWCPIYLWDECFN)
Backgroud signal: 0.071

Phage-123 (MDWCPIHLWNECFA)
Backgroud signal: 0.104

Phage-166 (MDWCPRHLWDLCFA)
Phage binding ELISA Backgroud signal (background signal): 0.061

Phage-72 (MFWCPTTMWNRCFT)
Phage binding ELISA CD28 scFv signal in presence of CD28: 0.338 | Phage binding ELISA CD28 scFv signal: 0.662 | Phage binding ELISA Backgroud signal (background signal): 0.111

Phage-439 (MDWCPRDRWDVCFA)
Phage binding ELISA Backgroud signal [1]: 0.073

Phage-205 (MDWCPTDMWHHCFL)
Phage binding ELISA Backgroud signal (background signal): 0.061

Phage-99 (MDWCPRYLWNMCFH)
CD28 scFv signal in presence of CD28: 0.404 | CD28 scFv signal: 2.564 | Backgroud signal: 0.114

Phage-44 (MDWCPIALWAECFN)
Phage binding ELISA CD28 scFv signal in presence of CD28: 0.224 | Phage binding ELISA CD28 scFv signal: 2.458 | Phage binding ELISA Backgroud signal (background signal): 0.111

Phage-199 (MDWCPRNMWAQCFA)
Phage binding ELISA Backgroud signal (background signal): 0.102

Phage-329 (MDWCPRALWNVCFA)
Phage binding ELISA Backgroud signal (background signal): 0.071

Phage-191 (MDWCPRDMWYECFN)
Phage binding ELISA Backgroud signal (background signal): 0.099

Phage-62 (MDWCPSYLWNECFF)
Phage binding ELISA Backgroud signal (background signal): 0.065

Phage-313 (MDWCPRSLWNYCFN)
Phage binding ELISA Backgroud signal (background signal): 0.076

Phage-219 (NYWCPSSMWNRCLH)
Phage binding ELISA Backgroud signal (background signal): 0.295

Phage-74 (MDWCPRDMWLFCYN)
Phage binding ELISA CD28 scFv signal in presence of CD28: 1.023 | Phage binding ELISA CD28 scFv signal: 2.707 | Phage binding ELISA Backgroud signal (background signal): 0.097

Phage-323 (MDWCPTYLWNVCFA)
Phage binding ELISA Backgroud signal (background signal): 0.085

Phage-47 (MAWCPVYLWHECFN)
Phage binding ELISA CD28 scFv signal in presence of CD28: 0.351 | Phage binding ELISA CD28 scFv signal: 2.273 | Phage binding ELISA Backgroud signal (background signal): 0.094

Phage-375 (MNWCPRALWHECFL)
Phage binding ELISA Backgroud signal (background signal): 0.085

Phage-307 (MDWCPRYLWPVCFH)
Phage binding ELISA Backgroud signal (background signal): 0.179

Phage-177 (MDWCPVSLWDHCFN)
Phage binding ELISA Backgroud signal (background signal): 0.075

Phage-343 (MDWCPRDLWTQCFF)
Phage binding ELISA Backgroud signal (background signal): 0.065

Phage-138 (MDWCPTNLWHECFA)
Backgroud signal: 0.061

Phage-132 (MDWCPTYLWFECFN)
Backgroud signal: 0.205

Phage-438 (MDWCPMSRWAFCFD)
Phage binding ELISA Backgroud signal [1]: 0.071

Phage-318 (MDWCPMFLWDECFN)
Phage binding ELISA Backgroud signal (background signal): 0.132

Phage-411 (MSWCPRFMWHECFN)
Phage binding ELISA Backgroud signal [1]: 0.081

Phage-210 (MDWCPRDMWFECFA)
Phage binding ELISA Backgroud signal (background signal): 0.076

Phage-195 (MDWCPKHMWFMCFN)
Phage binding ELISA Backgroud signal (background signal): 0.101

Phage-387 (MDWCPRHLWLECFN)
Phage binding ELISA Backgroud signal [1]: 0.064

Phage-308 (MDWCPKSLWAECFN)
Phage binding ELISA Backgroud signal (background signal): 0.395

Phage-213 (MNWCPSYMWDQCFA)
Phage binding ELISA Backgroud signal (background signal): 0.125

Phage-304 (MDWCPKFLWDECFA)
Phage binding ELISA Backgroud signal (background signal): 0.311

Phage-114 (MDWCPRYLWFECFA)
Backgroud signal: 0.066

Phage-265 (MDWCPRFMWDLCFA)
Phage binding ELISA Backgroud signal (background signal): 0.270

Phage-162 (MNWCPTDLWHECFN)
Phage binding ELISA Backgroud signal (background signal): 0.087

Phage-241 (MDWCPRHLWHECYS)
Phage binding ELISA Backgroud signal (background signal): 0.066

Phage-50 (MDWCPPYLWNVCFS)
Phage binding ELISA Backgroud signal (background signal): 0.063

Phage-125 (MDWCPVSLWHVCFY)
Backgroud signal: 0.107

Phage-157 (MDWCPRSLWSYCFH)
Backgroud signal: 0.066

Phage-414 (LYWCPRDMWAYCYS)
Phage binding ELISA Backgroud signal [1]: 0.068

Phage-207 (MDWCPRAMWHECFY)
Phage binding ELISA Backgroud signal (background signal): 0.069

Phage-369 (MHWCPRDLWYECFA)
Phage binding ELISA Backgroud signal (background signal): 0.072

Phage-224 (MDWCPKDRWNDCYF)
Phage binding ELISA Backgroud signal (background signal): 0.078

Phage-407 (MNWCPIHMWNQCFA)
Phage binding ELISA Backgroud signal [1]: 0.085

Phage-427 (VILCPTTMWNRCFH)
Phage binding ELISA Backgroud signal [1]: 0.100

Phage-431 (MAWCPADQWHECFN)
Phage binding ELISA Backgroud signal [1]: 0.076

Phage-58 (MHWCPIDRWADCFN)
Phage binding ELISA CD28 scFv signal in presence of CD28: 0.077 | Phage binding ELISA CD28 scFv signal: 0.287 | Phage binding ELISA Backgroud signal (background signal): 0.074

Phage-204 (MDWCPRHMWNVCFS)
Phage binding ELISA Backgroud signal (background signal): 0.067

Phage-187 (IGKLTLCLNADLVI)
Phage binding ELISA Backgroud signal (background signal): 0.274

Phage-275 (MDWCPRDHWVDCYS)
Phage binding ELISA Backgroud signal (background signal): 0.172

Phage-190 (MDWCPRDMWAECFF)
Phage binding ELISA Backgroud signal (background signal): 0.099

Phage-93 (MDWCPRYLWTVCFS)
CD28 scFv signal in presence of CD28: 0.372 | CD28 scFv signal: 2.582 | Backgroud signal: 0.115

Phage-245 (MDWCPRNLWHLCFA)
Phage binding ELISA Backgroud signal (background signal): 0.082

Phage-217 (MDWCPWDMWDKCFN)
Phage binding ELISA Backgroud signal (background signal): 0.101

Phage-89 (MDWCPRALWNVCFN)
Backgroud signal: 0.065

Phage-149 (MDWCPRDLWAVCFA)
Backgroud signal: 0.070

Phage-449 (MVDCPLISFDECLA)
Phage binding ELISA Backgroud signal [1]: 0.246

Phage-55 (QDWCPRHMWSFCFH)
Phage binding ELISA CD28 scFv signal in presence of CD28: 0.081 | Phage binding ELISA CD28 scFv signal: 0.074 | Phage binding ELISA Backgroud signal (background signal): 0.138

Phage-333 (MDWCPTDLWHECFA)
Phage binding ELISA Backgroud signal (background signal): 0.078

Phage-235 (MDWCPRYLWHECFS)
Phage binding ELISA Backgroud signal (background signal): 0.063

Phage-350 (MDWCPWFLWNECFN)
Phage binding ELISA Backgroud signal (background signal): 0.158

Phage-112 (MHWCPRALWDVCYN)
CD28 scFv signal in presence of CD28: 0.240 | CD28 scFv signal: 2.528 | Backgroud signal: 0.077

Phage-302 (MDWCPRYLWHVCFD)
Phage binding ELISA Backgroud signal (background signal): 0.068

Phage-433 (MAWCPWAQFDECLA)
Phage binding ELISA Backgroud signal [1]: 0.073

Phage-384 (IMWCPTSLWNRCVT)
Phage binding ELISA Backgroud signal [1]: 0.104

Phage-238 (MDWCPPYLWSECFA)
Phage binding ELISA Backgroud signal (background signal): 0.539

Phage-357 (MDWCPRLLWHECFN)
Phage binding ELISA Backgroud signal (background signal): 0.071

Phage-117 (MDWCPRYLWFECFS)
Backgroud signal: 0.079

Phage-315 (MDWCPTYLWHVCFS)
Phage binding ELISA Backgroud signal (background signal): 0.089

Phage-85 (MDWCPMDLWYQCFN)
Phage binding ELISA Backgroud signal (background signal): 0.063

Phage-233 (MTWCPTSFWNRCLD)
Phage binding ELISA Backgroud signal (background signal): 0.142

Phage-133 (MDWCPRFLWDECFF)
Backgroud signal: 0.064

Phage-231 (VPWCLIISGLDCLN)
Phage binding ELISA Backgroud signal (background signal): 0.455

Phage-423 (INLCPTPMWNRCWL)
Phage binding ELISA Backgroud signal [1]: 0.119

Phage-169 (MDWCPRDLWNVCFN)
Phage binding ELISA Backgroud signal (background signal): 0.100

Phage-395 (MDWCPKDMWAECFN)
Phage binding ELISA Backgroud signal [1]: 0.083

Phage-285 (MDWCPRDLWAMCFA)
Phage binding ELISA Backgroud signal (background signal): 0.071

Phage-381 (MAWCPRILWHQCFN)
Phage binding ELISA Backgroud signal [1]: 0.113

Phage-335 (MDWCPRFLWDYCFA)
Phage binding ELISA Backgroud signal (background signal): 0.146

Phage-100 (MDWCPRYLWTECFN)
Backgroud signal: 0.062

Phage-301 (MDWCPRYLWHECFF)
Phage binding ELISA Backgroud signal (background signal): 0.082
